target: T1, human ADRA2B receptor (Homo sapiens, UniProt P18089); experiment: GTPγS agonist assay, ADRA2B receptor; type: biochemical; conditions: read-out: GTPase - Human Alpha2B EC50
T1 construct: expressed in transfected cells
T1 sequence (P18089 1-450): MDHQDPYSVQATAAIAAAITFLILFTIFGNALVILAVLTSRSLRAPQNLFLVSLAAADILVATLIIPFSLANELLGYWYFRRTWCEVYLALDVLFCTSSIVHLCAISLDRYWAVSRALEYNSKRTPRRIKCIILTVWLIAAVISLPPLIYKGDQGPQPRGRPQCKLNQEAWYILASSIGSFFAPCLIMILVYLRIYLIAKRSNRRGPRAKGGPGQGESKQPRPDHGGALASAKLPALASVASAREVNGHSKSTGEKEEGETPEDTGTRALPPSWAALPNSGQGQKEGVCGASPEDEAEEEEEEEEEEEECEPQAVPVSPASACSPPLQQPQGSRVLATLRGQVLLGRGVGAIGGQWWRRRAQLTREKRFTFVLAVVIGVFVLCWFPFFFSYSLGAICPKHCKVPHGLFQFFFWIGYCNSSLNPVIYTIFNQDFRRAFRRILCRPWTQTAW
Description: GTP ? S Agonist Assays (ADRA2A, ADRA2B, and ADRA2C Receptors)
Membranes were prepared for GTP ? S binding assays from CHO-K1 cells stably expressing human ADRA2A, ADRA2B, or ADRA2C receptor. Briefly, cells were grown in 5-layer cell culture flasks. Cells were washed with 50 mL of PBS and then dissociated with 0.05% trypsin. Dissociated cells were then collected by centrifugation at 650×g for 8 min at 4° C. Pellets were washed again in PBS by centrifugation and resuspended in 30 mL of 20 mM HEPES, 10 mM EDTA, pH 7.4. After sitting on ice for 30 min, membranes were collected by centrifugation at 50000×g for 15 min at 4° C., resuspended in 30 mL of 20 mM HEPES, 0.1 mM EDTA, pH 7.4 and collected again by centrifugation. Pellets were then washed twice by centrifugation in 30 mL of 20 mM HEPES, pH 7.4, and stored at −80° C. until the day of the assay. On the day of the assay, pellets were thawed on ice and resuspended in 1 mL of 20 mM HEPES, pH 7.4, 10 mM MgCl2, 100 mM NaCl using dounce homogenization. Membrane protein concentration was determined by BCA protein assay (Promega, Madison, WI) according to Promega guidelines.
On the day of the assay, serial dilutions of test compounds were brought up in assay buffer (20 mM HEPES, 10 mM MgCl2, 200 mM NaCl) at 10× final assay concentration. 50 μL/well of membrane homogenates (containing 5 μg of membrane protein for ADRA2A, ADRA2B, or 7.5 μg for ADRA2C) were prepared in assay buffer supplemented with GDP at 2× final assay concentration (5 μM GDP) and dispensed into 96 well polypropylene, U-bottom Greiner plates. Then, 10 μL of compounds were added to assay plates and incubated for 10 min at room temperature. […] The binding reaction was incubated for 1 h at 37° C. Membranes in assay reactions were then transferred to GF/C filter plates (UniFilter, Perkin Elmer) and washed three times using a FilterMate Harvester (Perkin Elmer) with cold assay buffer containing no GDP. Filter plates were then dried at 40° C. overnight followed by the addition of 30 μL/well of Beta Plate Scintillation liquid. Plates were top and bottom sealed before being read on TopCount scintillation counter (Perkin Elmer, Waltham, MA).

Row | SMILES | EC50
1 | Cc1nc(C[C@H](c2c[nH]cn2)c2cccc(C)c2C)cs1 [Compound 103, 4-[(S)-2-(4-imidazolyl)-2-(2,3-xylyl)ethyl]-2-methyl-1,3-thiazole] | > 500 nM
2 | COc1nccc(CC(c2ccc(OC(F)(F)F)cc2)c2c[nH]cn2)n1 (centres unmarked) [Compound 203, 4-[2-(4-imidazolyl)-2 (p-trifluoromethoxyphenyl)ethyl]-2-methoxypyrimidine] | > 500 nM
3 | FC(F)(F)Oc1cccc([C@@H](Cc2ccccn2)c2cnc[nH]2)c1 [Compound 36, 2-[(2R)-2-(1H-imidazol-4-yl)-2-[3-(trifluoromethoxy)phenyl]ethyl] pyridine] | 10 to 50 nM
4 | COc1cccc(C[C@@H](c2cccc(Cl)c2)c2cnc[nH]2)n1 [Compound 21, 2-[(2S)-2-(3-chlorophenyl)-2-(1H-imidazol-4-yl)ethyl]-6-methoxypyridine] | 10 to 50 nM
5 | Cc1cccc(C(Cc2ncco2)c2c[nH]cn2)c1C (centres unmarked) [Compound 117, 2-[2-(4-imidazolyl)-2-(2,3-xylyl)ethyl]-1,3-oxazole] | 50 to 500 nM
6 | Cc1cccc([C@@H](Cc2ccccn2)c2cnc[nH]2)c1Cl [Compound 48, 2-[(2R)-2-(2-chloro-3-methylphenyl)-2-(1H-imidazol-4-yl)ethyl]pyridine] | 10 to 50 nM
7 | Cc1cccc([C@H](Cc2cscn2)c2c[nH]cn2)c1C [Compound 120, 4-[(S)-2-(4-imidazolyl)-2-(2,3-xylyl)ethyl]-1,3-thiazole] | > 500 nM
8 | COc1cccc(C(Cc2cccnn2)c2c[nH]cn2)c1F (centres unmarked) [Compound 360, 3-[2-(2-fluoro-3-methoxyphenyl)-2-(4-imidazolyl)ethyl]pyridazine] | > 500 nM
9 | COc1cccc(C[C@@H](c2c[nH]cn2)c2cccc(Cl)c2Cl)n1 [Compound 98, 4-[(R)-1-(2,3-dichlorophenyl)-2-(6-methoxy-2-pyridyl)ethyl] imidazole] | < 10 nM
10 | Clc1cccc(C(Cc2cccnn2)c2c[nH]cn2)c1Cl (centres unmarked) [Compound 170, 3-[2-(2,3-dichlorophenyl)-2-(4-imidazolyl)ethyl] pyridazine] | 50 to 500 nM
11 | Cc1cccc([C@H](Cc2cccnc2)c2cnc[nH]2)c1C [Compound 58, 3-[(2S)-2-(2,3-dimethylphenyl)-2-(1H-imidazol-4-yl)ethyl] pyridine] | 50 to 500 nM
12 | Clc1ccc(C(Cc2cccnn2)c2c[nH]cn2)cc1 (centres unmarked) [Compound 217, 3-[2-(p-chlorophenyl)-2-(4-imidazolyl)ethyl] pyridazine] | > 500 nM
13 | Cc1cc(C)nc(CC(c2cnc[nH]2)c2cccc(C)c2C)c1 (centres unmarked) [Compound 95, 2-[2-(2,3-dimethylphenyl)-2-(1H-imidazol-4-yl)ethyl]-4,6-dimethyl-pyridine] | < 10 nM
14 | COc1cccc(C[C@@H](c2cnc[nH]2)c2cccc3c2CCO3)n1 [Compound 19, 2-[(2R)-2-(2,3-dihydro-1-benzofuran-4-yl)-2-(1H-imidazol-4-yl)ethyl]-6-methoxypyridine] | 10 to 50 nM
15 | c1cnnc(C[C@@H](c2c[nH]cn2)c2cccc3c2OCC3)c1 (single isomer, unassigned) [Compound 362] | 10 to 50 nM
16 | Cc1cccc(C(Cc2cc(C(F)(F)F)nn2C)c2c[nH]cn2)c1C (centres unmarked) [Compound 310, 5-[2-(4-imidazolyl)-2-(2,3-xylyl)ethyl]-1-methyl-3-(trifluoromethyl)pyrazole] | < 10 nM
17 | Cc1nc(C)c(C[C@@H](c2c[nH]cn2)c2cccc(C)c2C)s1 [Compound 123, 5-[(R)-2-(4-imidazolyl)-2-(2,3-xylyl)ethyl]-2,4-dimethyl-1,3-thiazole] | < 10 nM
18 | Cc1c(Cl)cccc1[C@H](Cc1cccnc1)c1cnc[nH]1 [Compound 62, 3-[(2S)-2-(3-chloro-2-methylphenyl)-2-(1H-imidazol-4-yl)ethyl]pyridine] | > 500 nM
19 | Cc1cccc([C@H](Cc2cccnn2)c2c[nH]cn2)c1Cl [Compound 213, 3-[(S)-2-(2-chloro-3-tolyl)-2-(4-imidazolyl)ethyl] pyridazine] | 10 to 50 nM

Row | SMILES | EC50
20 | Cc1cccc([C@@H](Cc2cccnn2)c2c[nH]cn2)c1F [Compound 137, 3-[(R)-2-(2-fluoro-3-tolyl)-2-(4-imidazolyl)ethyl] pyridazine] | 50 to 500 nM
21 | COc1cccc(C[C@H](c2c[nH]cn2)c2cccc3c2OCC3)n1 [Compound 16, 2-[(2S)-2-(2,3-dihydro-1-benzofuran-7-yl)-2-(1H-imidazol-4-yl)ethyl]-6-methoxypyridine] | < 10 nM
22 | Cc1cc(C[C@H](c2c[nH]cn2)c2cccc(C)c2C)no1 [Compound 136, 3-[(S)-2-(4-imidazolyl)-2-(2,3-xylyl)ethyl]-5-methyl-isoxazole] | < 10 nM
23 | Cc1cccc([C@H](Cc2ccnn2C)c2c[nH]cn2)c1C [Compound 131, 5-[(S)-2-(4-imidazolyl)-2-(2,3-xylyl)ethyl]-1-methyl-pyrazole] | 10 to 50 nM
24 | Cc1cccc([C@H](Cc2cccnn2)c2cnc[nH]2)c1C [Compound 55, 3-[(2S)-2-(2,3-dimethylphenyl)-2-(1H-imidazol-4-yl)ethyl] pyridazine] | 10 to 50 nM
25 | Cc1cccc([C@@H](Cc2cscn2)c2c[nH]cn2)c1C [Compound 119, 4-[(R)-2-(4-imidazolyl)-2-(2,3-xylyl)ethyl]-1,3-thiazole] | < 10 nM
26 | COc1cccc(C[C@H](c2c[nH]cn2)c2cccc(Cl)c2Cl)n1 [Compound 99, 4-[(S)-1-(2,3-dichlorophenyl)-2-(6-methoxy-2-pyridyl)ethyl] imidazole] | > 500 nM
27 | C#Cc1cccc(C(Cc2cccnn2)c2c[nH]cn2)c1 (centres unmarked) [Compound 229, 3-[2-(m-ethynylphenyl)-2-(4-imidazolyl)ethyl] pyridazine] | > 500 nM
28 | Cc1c(Cl)cccc1C(Cc1ccccn1)c1cnc[nH]1 (centres unmarked) [Compound 49, 2-[2-(3-chloro-2-methylphenyl)-2-(1H-imidazol-4-yl)ethyl] pyridine] | 50 to 500 nM
29 | COc1cc(OC)nc(CC(c2c[nH]cn2)c2cccc(C)c2C)n1 (centres unmarked) [Compound 91, 2-[2-(2,3-dimethylphenyl)-2-(1H-imidazol-4-yl)ethyl]-4,6-dimethoxy-pyrimidine] | < 10 nM
30 | c1cc2c(c([C@H](Cc3cnn(C4CC4)c3)c3c[nH]cn3)c1)OCC2 [Compound 290, 4-[(S)-2-(2,3-dihydro-1-benzofuran-7-yl)-2-(4-imidazolyl)ethyl]-1-] | < 10 nM
31 | Cc1cccc(C(Cc2cncs2)c2c[nH]cn2)c1C (centres unmarked) [Compound 116, 5-[2-(4-imidazolyl)-2-(2,3-xylyl)ethyl]-1,3-thiazole] | 10 to 50 nM
32 | Cc1cccc([C@@H](Cc2cccnn2)c2cnc[nH]2)c1C [Compound 56, 3-[(2R)-2-(2,3-dimethylphenyl)-2-(1H-imidazol-4-yl)ethyl] pyridazine] | > 500 nM
33 | FC1(F)Oc2cccc([C@@H](Cc3ccccn3)c3c[nH]cn3)c2O1 [Compound 121, 4-[(R)-1-(4-imidazolyl)-2-(2-pyridyl)ethyl]-2,2-difluoro-2H-1,3-benzodioxole] | 50 to 500 nM
34 | Cc1nc(C)c(C[C@H](c2c[nH]cn2)c2cccc(C)c2C)s1 [Compound 124, 5-[(S)-2-(4-imidazolyl)-2-(2,3-xylyl)ethyl]-2,4-dimethyl-1,3-thiazole] | 10 to 50 nM
35 | COc1cccc(C[C@@H](c2c[nH]cn2)c2cccc(Cl)c2OC)n1 [Compound 8, 2-[(2R)-2-(3-chloro-2-methoxyphenyl)-2-(1H-imidazol-4-yl)ethyl]-6-methoxypyridine] | > 500 nM
36 | COc1cccc(C(Cc2ccnc(C)n2)c2c[nH]cn2)c1C (centres unmarked) [Compound 149, 4-[2-(4-imidazolyl)-2-(3-methoxy-2-tolyl)ethyl]-2-methylpyrimidine] | 10 to 50 nM
37 | Cc1cccc([C@@H](Cc2cccnc2)c2cnc[nH]2)c1C [Compound 59, 3-[(2R)-2-(2,3-dimethylphenyl)-2-(1H-imidazol-4-yl)ethyl] pyridine] | < 10 nM
38 | Cc1cccc(C(Cc2ccc(=O)[nH]n2)c2c[nH]cn2)c1C (centres unmarked) [Compound 86, 6-[2-(2,3-dimethylphenyl)-2-(1H-imidazol-4-yl)ethyl]-2,3-dihydropyridazin-3-one] | < 10 nM
